Measured values published in ChEMBL document CHEMBL1201862, “PubChem BioAssay data set” (2004).
The source made the active and inactive calls.

What was measured:
Cytochrome P450 3A4 = Cytochrome P450 3A4 (Homo sapiens, UniProt P08684);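 note: CYP3A4 tested as one member of a cytochrome P450 panel screen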
[1] = tested on: Streptococcus sp. 'group A'; assay: growth inhibition of control SK(-) GAS strain, dose response, counter-screen for streptokinase expression inhibitor project, luminescence, kanamycin, BacTiterGlo, confirmation (AID 1900); type: functional, organism-based
Streptococcus = assay: Group A Streptococcus viability loss, dose response, counter-screen for streptokinase expression inhibitor project, luminescence, BacTiterGlo (AID 1915); type: functional, organism-based;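 note: potency for reduction of bacterial viability or growth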
Protein RecA = target: T1, Protein RecA (Mycobacterium tuberculosis, UniProt P9WHJ3); assay: Fluorescence Cell-Free Homogeneous Dose Retest to Identify Inhibitors of RecA-Intein Splicing Activity. [Related pubchem assays (depositor defined):AID2097, AID2223, AID489010, AID492950]; type: functional
T1 sequence (P9WHJ3 whole entry): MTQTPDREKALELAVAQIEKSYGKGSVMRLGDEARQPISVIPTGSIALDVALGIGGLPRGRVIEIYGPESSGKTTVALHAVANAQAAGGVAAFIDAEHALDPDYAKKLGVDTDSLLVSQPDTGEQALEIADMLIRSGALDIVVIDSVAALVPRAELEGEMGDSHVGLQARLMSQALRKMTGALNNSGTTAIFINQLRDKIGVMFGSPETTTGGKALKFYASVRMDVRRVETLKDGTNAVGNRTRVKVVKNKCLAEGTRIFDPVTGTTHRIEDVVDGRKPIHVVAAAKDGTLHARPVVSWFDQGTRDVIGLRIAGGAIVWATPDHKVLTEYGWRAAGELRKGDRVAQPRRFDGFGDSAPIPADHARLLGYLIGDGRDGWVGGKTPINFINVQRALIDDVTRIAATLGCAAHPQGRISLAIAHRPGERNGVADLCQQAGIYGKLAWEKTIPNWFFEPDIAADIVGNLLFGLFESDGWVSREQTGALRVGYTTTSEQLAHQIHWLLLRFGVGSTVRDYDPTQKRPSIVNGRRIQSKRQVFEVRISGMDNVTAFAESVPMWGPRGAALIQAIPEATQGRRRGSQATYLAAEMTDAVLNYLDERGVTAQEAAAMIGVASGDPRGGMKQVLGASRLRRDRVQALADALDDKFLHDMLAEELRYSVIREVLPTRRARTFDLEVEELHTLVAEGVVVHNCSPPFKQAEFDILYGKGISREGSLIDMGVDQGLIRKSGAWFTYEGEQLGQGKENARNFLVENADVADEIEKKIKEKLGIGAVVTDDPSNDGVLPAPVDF

[2] = target: T2, Replicative DNA helicase DnaB (Mycobacterium tuberculosis, UniProt P9WMR3); assay: DnaB intein splicing inhibitors, dose response, biochemical, cell-free fluorescence (AID 449749); type: functional
T2 sequence (P9WMR3 whole entry): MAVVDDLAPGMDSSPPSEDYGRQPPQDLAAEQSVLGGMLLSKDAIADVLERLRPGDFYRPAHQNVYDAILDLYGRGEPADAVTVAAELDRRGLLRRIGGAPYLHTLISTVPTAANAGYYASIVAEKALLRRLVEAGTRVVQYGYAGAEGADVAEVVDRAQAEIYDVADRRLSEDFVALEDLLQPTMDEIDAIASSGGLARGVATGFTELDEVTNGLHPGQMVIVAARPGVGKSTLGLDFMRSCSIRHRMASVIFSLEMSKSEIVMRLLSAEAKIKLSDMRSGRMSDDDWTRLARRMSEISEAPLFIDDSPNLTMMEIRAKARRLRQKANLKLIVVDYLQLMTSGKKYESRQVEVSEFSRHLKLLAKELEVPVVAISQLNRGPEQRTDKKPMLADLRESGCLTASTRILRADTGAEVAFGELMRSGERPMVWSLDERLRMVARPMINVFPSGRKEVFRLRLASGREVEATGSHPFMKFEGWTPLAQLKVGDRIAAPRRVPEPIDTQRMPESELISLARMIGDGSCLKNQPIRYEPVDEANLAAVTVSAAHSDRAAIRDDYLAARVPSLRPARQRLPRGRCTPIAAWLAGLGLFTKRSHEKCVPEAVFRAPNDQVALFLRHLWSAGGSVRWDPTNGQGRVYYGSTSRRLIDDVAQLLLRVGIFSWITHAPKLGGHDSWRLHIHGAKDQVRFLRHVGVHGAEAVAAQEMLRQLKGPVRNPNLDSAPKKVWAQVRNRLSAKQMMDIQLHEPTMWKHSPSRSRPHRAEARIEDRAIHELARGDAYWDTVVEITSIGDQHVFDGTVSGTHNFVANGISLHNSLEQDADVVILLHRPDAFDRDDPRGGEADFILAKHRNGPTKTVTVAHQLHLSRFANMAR

[3] = Luminescence Cell-Based Dose Retest to Confirm Inhibitors of Cancer Stem Cells. [Related pubchem assays (depositor defined):AID2717, AID2721]; type: functional; details: Homo sapiens
Cytochrome P450 2C19 = Cytochrome P450 2C19 (Homo sapiens, UniProt P33261); assay: Cytochrome panel assay with activity outcomes. Panel member name: p450-cyp2c19 Compounds with AC50 equal or less than 10 uM are considered active; type: functional; details: read-out: AC50
[4] = target: T3, Corticotropin-releasing factor receptor 2/Corticotropin-releasing factor-binding protein (Homo sapiens, UniProt P24387+Q13324); assay: activators of CRF receptor 2 with binding protein – uHTS hits, confirmation (AID 602473); type: functional; details: read-out: EC50_Mean
T3 sequence (Q13324 whole entry): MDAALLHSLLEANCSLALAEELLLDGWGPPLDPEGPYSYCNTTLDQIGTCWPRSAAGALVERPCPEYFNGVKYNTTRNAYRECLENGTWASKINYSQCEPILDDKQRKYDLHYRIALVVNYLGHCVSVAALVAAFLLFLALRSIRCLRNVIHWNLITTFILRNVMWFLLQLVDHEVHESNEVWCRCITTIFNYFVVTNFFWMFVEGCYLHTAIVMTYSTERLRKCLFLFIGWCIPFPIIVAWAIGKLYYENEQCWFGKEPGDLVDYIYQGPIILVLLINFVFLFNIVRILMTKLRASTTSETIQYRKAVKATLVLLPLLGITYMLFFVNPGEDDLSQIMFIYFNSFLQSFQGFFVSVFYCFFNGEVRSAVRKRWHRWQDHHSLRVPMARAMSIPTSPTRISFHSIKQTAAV
T3 sequence (P24387 whole entry): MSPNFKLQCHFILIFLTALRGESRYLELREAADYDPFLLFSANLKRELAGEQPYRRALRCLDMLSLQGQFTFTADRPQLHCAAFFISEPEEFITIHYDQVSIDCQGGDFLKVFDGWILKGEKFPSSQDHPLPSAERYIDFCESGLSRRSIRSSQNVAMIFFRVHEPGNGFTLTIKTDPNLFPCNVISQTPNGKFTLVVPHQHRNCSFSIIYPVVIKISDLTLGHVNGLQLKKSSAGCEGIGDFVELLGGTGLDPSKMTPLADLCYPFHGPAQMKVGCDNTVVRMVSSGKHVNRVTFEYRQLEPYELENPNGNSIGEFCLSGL

[5] = target: T4, Heat shock factor protein 1 (Mus musculus, UniProt P38532); assay: inhibition of MG132-induced HSE-luciferase signal, confirmation, cell-based, NIH3T3, luminescence, dose retest (AID 2382); type: functional;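 note: NIH3T3 fibroblasts with HSF1-driven luciferase reporter stressed by proteasome inhibitor MG132; luminescence from HSF1-driven luciferase expression after 8 hours of MG132 stress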
T4 sequence (P38532 whole entry): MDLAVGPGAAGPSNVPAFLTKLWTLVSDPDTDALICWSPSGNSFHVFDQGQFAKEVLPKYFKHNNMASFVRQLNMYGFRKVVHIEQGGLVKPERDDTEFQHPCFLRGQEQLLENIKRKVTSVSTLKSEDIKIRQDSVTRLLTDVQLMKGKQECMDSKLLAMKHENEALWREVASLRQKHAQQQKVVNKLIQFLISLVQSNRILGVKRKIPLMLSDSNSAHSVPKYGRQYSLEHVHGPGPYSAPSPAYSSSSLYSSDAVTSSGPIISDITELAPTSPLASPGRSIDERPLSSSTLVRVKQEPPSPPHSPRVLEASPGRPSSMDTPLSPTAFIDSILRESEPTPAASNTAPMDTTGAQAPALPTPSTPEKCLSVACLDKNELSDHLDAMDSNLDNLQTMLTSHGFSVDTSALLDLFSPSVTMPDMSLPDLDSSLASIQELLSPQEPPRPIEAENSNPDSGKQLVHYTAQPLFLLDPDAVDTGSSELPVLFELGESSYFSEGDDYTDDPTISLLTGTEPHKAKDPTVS

[6] = cytotoxicity toward NIH3T3 fibroblasts, dose response, counter-screen, cell-based, ATP luminescence, mouse fibroblasts (AID 2010); type: functional;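 note: cells exposed to compound for about 90 hours before reading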
[7] = inhibitors of intracellular T. cruzi replication, confirmation, NIH3T3 host cells, beta-gal luminescence (AID 2044); type: functional, cell-based;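 note: intracellular parasites grown in NIH/3T3 mouse fibroblasts as host cells; luminescent beta-galactosidase reporter signal from transgenic T. cruzi replicating inside host cells; inhibitors lower the luminescence signal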
Cytochrome P450 2D6 = Cytochrome P450 2D6 (Homo sapiens, UniProt P10635);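 note: CYP2D6 member of a cytochrome P450 panel assay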
Sequence of Cytochrome P450 2D6 (P10635 whole entry): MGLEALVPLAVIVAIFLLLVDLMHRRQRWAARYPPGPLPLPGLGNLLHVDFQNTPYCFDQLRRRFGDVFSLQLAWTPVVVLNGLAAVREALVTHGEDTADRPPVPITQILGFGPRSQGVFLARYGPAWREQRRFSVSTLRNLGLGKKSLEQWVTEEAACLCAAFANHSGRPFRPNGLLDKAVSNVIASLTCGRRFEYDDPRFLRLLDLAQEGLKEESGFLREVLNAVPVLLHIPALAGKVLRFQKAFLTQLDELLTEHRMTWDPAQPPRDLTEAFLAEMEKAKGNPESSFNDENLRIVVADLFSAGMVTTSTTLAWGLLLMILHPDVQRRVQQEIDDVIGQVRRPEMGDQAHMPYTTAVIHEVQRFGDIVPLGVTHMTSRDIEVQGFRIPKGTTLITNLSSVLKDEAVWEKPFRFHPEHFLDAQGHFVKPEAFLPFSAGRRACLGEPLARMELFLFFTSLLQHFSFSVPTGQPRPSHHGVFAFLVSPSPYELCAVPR

Sequence of Cytochrome P450 3A4 (P08684 whole entry): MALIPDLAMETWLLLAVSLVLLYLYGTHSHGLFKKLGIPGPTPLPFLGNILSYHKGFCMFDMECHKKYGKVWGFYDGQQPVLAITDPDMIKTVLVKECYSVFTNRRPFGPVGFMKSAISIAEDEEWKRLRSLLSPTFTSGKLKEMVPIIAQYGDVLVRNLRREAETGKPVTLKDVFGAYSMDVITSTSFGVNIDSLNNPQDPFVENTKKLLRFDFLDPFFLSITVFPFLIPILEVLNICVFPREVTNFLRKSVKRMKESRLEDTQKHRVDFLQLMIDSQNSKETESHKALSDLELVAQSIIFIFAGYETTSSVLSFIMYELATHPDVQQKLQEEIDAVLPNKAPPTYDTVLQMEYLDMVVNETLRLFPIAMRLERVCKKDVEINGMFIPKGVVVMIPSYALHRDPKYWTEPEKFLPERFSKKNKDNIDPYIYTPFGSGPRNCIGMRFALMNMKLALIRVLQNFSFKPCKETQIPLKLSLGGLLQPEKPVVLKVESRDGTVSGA
Sequence of Cytochrome P450 2C19 (P33261 whole entry): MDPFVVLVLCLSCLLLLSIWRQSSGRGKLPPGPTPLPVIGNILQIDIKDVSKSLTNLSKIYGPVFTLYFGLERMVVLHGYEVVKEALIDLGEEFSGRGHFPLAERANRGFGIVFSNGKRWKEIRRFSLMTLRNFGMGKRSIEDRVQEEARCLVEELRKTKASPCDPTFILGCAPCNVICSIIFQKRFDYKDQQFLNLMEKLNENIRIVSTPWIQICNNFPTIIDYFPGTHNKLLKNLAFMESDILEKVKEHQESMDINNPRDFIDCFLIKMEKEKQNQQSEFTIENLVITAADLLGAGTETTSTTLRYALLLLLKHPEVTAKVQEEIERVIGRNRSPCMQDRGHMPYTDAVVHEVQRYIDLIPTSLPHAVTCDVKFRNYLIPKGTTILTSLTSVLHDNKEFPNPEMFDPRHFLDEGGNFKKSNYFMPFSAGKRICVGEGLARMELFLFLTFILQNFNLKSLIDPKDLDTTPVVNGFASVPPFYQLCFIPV

Cc1nc2cnc(OCc3ccccc3)nc2n(CCc2ccccc2)c1=O
AC50 (Cytochrome P450 3A4): 25.1 µM (inconclusive)

CC(=O)OCC1=C(C(=O)O)N2C(=O)C(NC(=O)C(C)Cn3cc(Cl)cn3)C2SC1 (stereo not drawn)
EC50 [1]: 1.39 µM (active) | EC50 (Streptococcus): 1.27 µM (active)

CCOC(=O)c1nnn(-c2nonc2-n2cccc2)c1CCl
EC50 (Protein RecA): 1.42 µM (active) | AC50 [2]: 5.35 µM (active)

O=c1[nH]cc(NCCc2ccccc2)c(=O)[nH]1
EC50 (Protein RecA): 10.1 µM (active) | AC50 [2]: > 380 µM (inconclusive)

O=S(=O)(NC1CC(NS(=O)(=O)OCC(Cl)(Cl)Cl)C2CCCCC12)OCC(Cl)(Cl)Cl (stereo not drawn)
AC50 [3]: 1.31 µM (active)

CCNc1ncc2nc(-c3cn(C)c4ccccc34)c(=O)n(CCC#N)c2n1
AC50 (Cytochrome P450 3A4): 12.6 µM (inconclusive)

COc1ccccc1Nc1nc(-c2sc(NC(=O)c3ccccc3)nc2C)cs1
AC50 (Cytochrome P450 3A4): 15.8 µM (inconclusive) | AC50 (Cytochrome P450 2C19): 3.16 µM (inconclusive)

Cn1cc(-c2nc3cncnc3n(C3CC3)c2=O)c2ccccc21
AC50 (Cytochrome P450 3A4): 7.94 µM (inconclusive)

CCn1c(=O)c(C(=O)NCCc2ccccc2)c(O)c2ccccc21
AC50 [3]: 6.91 µM (active)

C/C=C(/C)C(=O)OC1CC(C)(C)C[C@H]2C3=CC[C@@H]4[C@@]5(C)CCC(O[C@@H]6O[C@@H](C(=O)O)[C@@H](O)C(O[C@@H]7OC[C@H](O)[C@@H](O)[C@@H]7O[C@@H]7OC(CO)C(O)[C@@H](O)[C@@H]7O)C6O[C@@H]6OC(CO)C(O)C(O)C6O)[C@@](C)(CO)[C@@H]5CC[C@]4(C)[C@]3(C)CC(O)[C@@]12CO (stereo partly drawn)
EC50 [4]: 5.49 µM (active)

O=C1CC/[N+](=C\c2ccccc2)[N-]1
EC50 (Protein RecA): 4.58 µM (active) | AC50 [2]: 19.4 µM (active)

COc1ccc(NC(=O)c2ccc(COc3ccccc3Br)o2)cc1OC
AC50 [3]: 1.69 µM (active)

CC(C)(C)c1ccc(C(=O)NC(=S)Nc2nc3c(s2)CCCC3)cc1
EC50 [5]: 0.192 µM (active) | AC50 [3]: 2.02 µM (active)

O=[N+]([O-])c1cc(Cl)cc2c1nc(NCCO)c1ccccc12
AC50 (Cytochrome P450 3A4): 3.16 µM (inconclusive)

CC1(c2ccc(OC(F)F)cc2)NC(=O)N(CC(=O)Nc2cccc(F)c2)C1=O (stereo not drawn)
EC50 [4]: 4.52 µM (active)

COC(=O)Cc1n[nH]c2c1C(c1c[nH]c3ccccc13)C(C#N)=C(N)O2 (stereo not drawn)
EC50 (Protein RecA): > 380 µM (inconclusive) | AC50 [2]: > 380 µM (inactive)

COc1cccc(-c2cc3nc(-c4ccccc4)cc(N4CCC5(CC4)OCCO5)n3n2)c1
AC50 (Cytochrome P450 3A4): 20 µM (inconclusive) | EC50 [6]: > 30 µM (not active) | AC50 (Cytochrome P450 2C19): 2 µM (inconclusive) | EC50 [7]: 1.82 µM (active)

COC(=O)c1c(-c2ccc(OC)cc2)oc2ccc(-c3cc(OC)c(OC)c(OC)c3)cc12
AC50 [3]: 5.85 µM (active)

Cc1cccc(C(=O)OCC(=O)Nc2nnc(-c3ccccc3)o2)c1O
EC50 [1]: 3.11 µM (active) | EC50 (Streptococcus): 4.74 µM (active)

Cc1ccccc1CS(=O)(=O)c1snnc1C
EC50 (Protein RecA): > 380 µM (inactive) | AC50 [2]: > 380 µM (inactive)

Cc1ccc(NC(=O)C2C3CCCC2C3c2ccccc2)cc1C (stereo not drawn)
AC50 (Cytochrome P450 3A4): 8.91 µM (inconclusive)

CC(C)CN1CCCC2(CCN(C(=O)Oc3ccccc3)CC2)C1
AC50 (Cytochrome P450 2D6): 20 µM (inconclusive) | AC50 (Cytochrome P450 3A4): 25.1 µM (inconclusive)

Fc1cccc(C2NC(S)=NC3=C2N2CCC3CC2)c1 (stereo not drawn)
AC50 (Cytochrome P450 2D6): 3.16 µM (inconclusive) | AC50 (Cytochrome P450 3A4): 25.1 µM (inconclusive)

COc1ccc(NC(=S)N(CCc2nc3cc(C)c(C)cc3[nH]2)Cc2cccnc2)cc1
AC50 (Cytochrome P450 3A4): 0.891 µM (inconclusive)

O=C1c2cc(Br)ccc2N(Cc2ccc(Br)cc2)S(=O)(=O)C1c1cc(Cl)c(Cl)cc1[N+](=O)[O-] (stereo not drawn)
AC50 [3]: 1.06 µM (active)

CCCC1CC(C(=O)NC(C(C)Cl)C2OC(SC)C(O)C(O)C2O)N(C)C1 (stereo not drawn)
EC50 [1]: < 0.06 µM (active) | EC50 (Streptococcus): < 0.06 µM (active)

Cc1[nH]c2ccc(F)cc2c1CCN(Cc1cccnc1)C(S)=Nc1ccc(F)cc1
EC50 (Protein RecA): 93.4 µM (active) | AC50 [2]: 17.2 µM (active) | EC50 [6]: > 30 µM (not active) | EC50 [7]: 0.705 µM (active)

FC(F)Oc1ccc(-c2csc(NNC3=NCCCCC3)n2)cc1
AC50 [3]: 1.77 µM (active)

CCCCOc1ccc(C2C3CN(C(=O)OCC)CC=C3C(C#N)=C(N)C2(C#N)C#N)cc1OC (stereo not drawn)
EC50 (Protein RecA): 29.8 µM (active) | AC50 [2]: > 380 µM (inactive)
